# Test results published in US20230151025A1, “SUBSTITUTED THIAZOLOPYRIDINES, SALTS THEREOF AND THEIR USE AS HERBICIDALLY ACTIVE SUBSTANCES” (Bayer Aktiengesellschaft, priority 2020, published 2023).
# Test system: Lolium rigidum (LOLRI)
# Assay: Herbicidal pre-emergence action (A), 1280 g/ha
# Assay type: in vivo
# Conditions: visual grading after ca. 3 weeks vs untreated controls, 100% = plants have died off, 0% = as control plants
# Method in brief: (§1)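 Seeds were sown in sandy loam pots (one mono- and one dicot weed per pot) and covered with soil; WP or EC formulations were applied to the soil surface as aqueous suspension/emulsion with 0.5% additive at 600 l water/ha. Damage was scored visually after ca. 3 weeks versus untreated controls (0% = control, 100% = dead).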
row,SMILES,"LOLRI, herbicidal effect in percent (%)"
1,Cc1cc2scnc2nc1-c1ccccc1C(F)(F)F [Example I-064],100

# Test system: Amaranthus retroflexus (AMARE)
# Assay: Herbicidal pre-emergence action (A), 1280 g/ha
# Assay type: in vivo
# Conditions: visual grading after ca. 3 weeks vs untreated controls
# Method in brief: as §1
row,SMILES,herbicidal effect AMARE [%]
1,Cc1cc2scnc2nc1-c1ccccc1C(F)(F)F [Example I-064],100

# Test system: Digitaria sanguinalis (DIGSA)
# Assay: Herbicidal pre-emergence action (A), 1280 g/ha
# Assay type: in vivo
# Conditions: visual grading after ca. 3 weeks vs untreated controls, 100% = plants have died off, 0% = as control plants
# Method in brief: as §1
row,SMILES,"DIGSA, herbicidal effect in percent (%)"
1,Cc1cc2scnc2nc1-c1ccccc1C(F)(F)F [Example I-064],100

# Test system: Kochia scoparia (KCHSC; Bassia scoparia)
# Assay: Herbicidal pre-emergence action (A), 1280 g/ha
# Assay type: in vivo
# Conditions: visual grading after ca. 3 weeks vs untreated controls
# Method in brief: as §1
row,SMILES,herbicidal effect KCHSC [%]
1,Cc1cc2scnc2nc1-c1ccccc1C(F)(F)F [Example I-064],100

# Test system: Stellaria media (STEME)
# Assay: Herbicidal pre-emergence action (A), 1280 g/ha
# Assay type: in vivo
# Conditions: visual grading after ca. 3 weeks vs untreated controls
# Method in brief: as §1
row,SMILES,herbicidal effect STEME [%]
1,Cc1cc2scnc2nc1-c1ccccc1C(F)(F)F [Example I-064],100

# Test system: Poa annua (POAAN)
# Assay: Herbicidal pre-emergence action (A), 1280 g/ha
# Assay type: in vivo
# Conditions: visual grading after ca. 3 weeks vs untreated controls, 100% = plants have died off, 0% = as control plants
# Method in brief: as §1
row,SMILES,"POAAN, herbicidal effect in percent (%)"
1,Cc1cc2scnc2nc1-c1ccccc1C(F)(F)F [Example I-064],100

# Test system: Veronica persica (VERPE)
# Assay: Herbicidal pre-emergence action (A), 1280 g/ha
# Assay type: in vivo
# Conditions: visual grading after ca. 3 weeks vs untreated controls
# Method in brief: as §1
row,SMILES,herbicidal effect VERPE [%]
1,Cc1cc2scnc2nc1-c1ccccc1C(F)(F)F [Example I-064],90

# Test system: Abutilon theophrasti (ABUTH)
# Assay: Herbicidal pre-emergence action (A), 1280 g/ha
# Assay type: in vivo
# Conditions: visual grading after ca. 3 weeks vs untreated controls, 100% = plants have died off, 0% = as control plants
# Method in brief: as §1
row,SMILES,"ABUTH, herbicidal effect in percent (%)"
1,Cc1cc2scnc2nc1-c1ccccc1C(F)(F)F [Example I-064],90

# Test system: Echinochloa crus-galli (ECHCG)
# Assay: Herbicidal pre-emergence action (A), 1280 g/ha
# Assay type: in vivo
# Conditions: visual grading after ca. 3 weeks vs untreated controls, 100% = plants have died off, 0% = as control plants
# Method in brief: as §1
row,SMILES,"ECHCG, herbicidal effect in percent (%)"
1,Cc1cc2scnc2nc1-c1ccccc1C(F)(F)F [Example I-064],100

# Test system: Setaria viridis (SETVI)
# Assay: Herbicidal pre-emergence action (A), 1280 g/ha
# Assay type: in vivo
# Conditions: visual grading after ca. 3 weeks vs untreated controls
# Method in brief: as §1
row,SMILES,herbicidal effect SETVI [%]
1,Cc1cc2scnc2nc1-c1ccccc1C(F)(F)F [Example I-064],100

# Test system: Matricaria inodora (MATIN)
# Assay: Herbicidal post-emergence action (B), 1280 g/ha
# Assay type: in vivo
# Conditions: rated visually after about 3 weeks vs untreated controls
# Method in brief: (§2)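 Post-emergence spray, one-leaf stage; WP/EC formulation, aqueous, 0.5% additive, 600 L/ha water. Sandy loam, greenhouse, doubly sown pots. Visual % rating vs untreated control at ~3 weeks (100% = dead).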
row,SMILES,herbicidal activity MATIN [%]
1,Cc1cc2scnc2nc1-c1ccccc1C(F)(F)F [Example I-064],100

# Test system: Kochia scoparia (KCHSC; Bassia scoparia)
# Assay: Herbicidal post-emergence action (B), 1280 g/ha
# Assay type: in vivo
# Conditions: not given
# Method in brief: as §2
row,SMILES,herbicidal effect KCHSC [%]
1,Cc1cc2scnc2nc1-c1ccccc1C(F)(F)F [Example I-064],100

# Test system: Stellaria media (STEME)
# Assay: Herbicidal post-emergence action (B), 1280 g/ha
# Assay type: in vivo
# Conditions: not given
# Method in brief: as §2
row,SMILES,herbicidal effect STEME [%]
1,Cc1cc2scnc2nc1-c1ccccc1C(F)(F)F [Example I-064],100

# Test system: Veronica persica (VERPE)
# Assay: Herbicidal post-emergence action (B), 1280 g/ha
# Assay type: in vivo
# Conditions: not given
# Method in brief: as §2
row,SMILES,herbicidal effect VERPE [%]
1,Cc1cc2scnc2nc1-c1ccccc1C(F)(F)F [Example I-064],90
